# In patent US8927715B2, “Inhibitors of 11β-hydroxysteroid dehydrogenase type 1” (Vitae Pharmaceuticals, Inc., priority 2006, dated 2015):
# Target: T1, human 11β-HSD1 (Homo sapiens, UniProt P28845)
# Assay: Scintillation Proximity Assay: inhibition of purified 11β-HSD1 (Biological Test Example 1)
# Assay type: biochemical
# Set-up: made in house; host or cells: E. coli
# Conditions: purified recombinant 11β-HSD1, SPA; read-out: Biological Test Example 1 (IC50 class)
# Protocol: The inhibition of purified 11β-HSD1 by compounds of Formula I or I* is measured using a Scintillation Proximity Assay. All reactions are carried out at room temperature in 96 well flexible Microbeta reaction plates. First, 1 μL of a 0.1 mM solution of a compound of Formula I or I* is mixed in DMSO diluted in half-log increments (8 points) starting at 1 μM final concentration. To this dot is added 50 μL of substrate solution (50 mM HEPES, pH 7.4, 100 mM KCl, 5 mM NaCl, 2 mM MgCl2 containing 20 μM ^3H cortisone, 1 mM NADPH). […] The reaction is then incubated for 90 minutes, and stopped by adding 50 μl of SPA bead mix (18-β-glycyrrhetinic acid, 10 μM final, 5 mg/ml protein A coated YSi SPA beads, and 1 μg/ml α-cortisol antibody (East Coast Biologics)). The plate is shaken for 120 minutes, and the radioactivity corresponding to ^3H cortisol is measured on a Wallac Microbeta.
# Target sequence in this assay (P28845 whole entry, species assumed): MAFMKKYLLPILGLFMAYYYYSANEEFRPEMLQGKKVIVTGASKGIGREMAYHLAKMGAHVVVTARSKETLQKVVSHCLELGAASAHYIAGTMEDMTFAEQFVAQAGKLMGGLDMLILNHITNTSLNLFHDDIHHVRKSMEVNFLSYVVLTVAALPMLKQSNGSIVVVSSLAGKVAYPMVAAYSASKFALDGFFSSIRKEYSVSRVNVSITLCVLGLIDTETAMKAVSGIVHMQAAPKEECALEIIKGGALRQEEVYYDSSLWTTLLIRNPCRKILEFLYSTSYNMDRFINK
row,SMILES,IC50
1,"CC(C)(C)OC(=O)N1CCC2(CCCN(C(=O)NC3C4CC5CC(C4)CC3C5)C2)C1 (racemic) [Example 10, (±)-tert-Butyl 7((2-adamantyl)carbamoyl)-2,7-diazaspiro[4.5]decane-2-carboxylate]",50 to 1000 nM
2,"O=C(O)C1CC2(CCN(C(=O)NC3C4CC5CC(C4)CC3C5)CC2)c2ccccc21 (racemic) [Example 12, (±)-1′-((2-Adamantyl)carbamoyl)-2,3-dihydrospiro[indene-1,4′-piperidine]-3-carboxylic acid]",< 50 nM
3,"O=C(O)C1CC2(CCN(C(=O)NC3C4CC5CC(C4)CC3C5)CC2)Oc2ccccc21 (racemic) [Example 13, (±)-1′-((2-Adamantyl)carbamoyl)spiro[chroman-2,4′-piperidine]-4-carboxylic acid]",50 to 1000 nM
4,"CCOC(=O)CC1CC2(CCN(C(=O)NC3C4CC5CC(C4)CC3C5)CC2)Oc2ccccc21 (racemic) [Example 18, (±)-Ethyl 2-1′-((2-adamantyl)carbamoyl)spiro[chroman-2,4′-piperidine]-4-yl)acetate]",50 to 1000 nM
5,"COC(=O)CC1CC2(CCN(C(=O)OC3C4CC5CC(C4)CC3C5)CC2)c2ccccc21 (racemic) [Example 24, (±)-2-Adamantyl 3-(2-methoxy-2-oxoethyl)-2,3-dihydrospiro[indene-1,4′-piperidine]-1′-carboxylate]",< 50 nM

# Target: T1, human 11β-HSD1
# Assay: Inhibition of a microsomal preparation of 11β-HSD1, SPA (Biological Test Example 2)
# Assay type: biochemical
# Set-up: expressed in transfected cells; host or cells: CHO cells (microsomes)
# Conditions: read-out: Biological Test Example 2 (IC50 class)
# Protocol: All reactions are carried out at room temperature in 96 well clear flexible PET Microbeta plates (PerkinElmer). […] After a 10 minute pre-incubation, 50 μL of enzyme solution containing microsomes isolated from CHO cells overexpressing human 11β-HSD1 (10-20 μg/ml of total protein) is added, and the plates are then incubated for 90 minutes at room temperature. The reaction is stopped by adding 50 μl of the SPA beads suspension containing […] 18β-glycyrrhetinic acid, 5 mg/ml protein A coated YSi SPA beads (GE Healthcare) and 3.3 μg/ml of anti-cortisol antibody (East Coast Biologics) in Superblock buffer (Bio-Rad). The plates are then shaken for 120 minutes at room temperature, and the SPA signal corresponding to [^3H]cortisol is measured on a Microbeta plate reader.
# Target sequence in this assay (P28845 whole entry): as the sequence (P28845 whole entry, species assumed) above
row,SMILES,IC50
1,"O=C(O)CCCC(=O)N1CC2(CCN(C(=O)NC3C4CC5CC(C4)CC3C5)CC2)c2ccccc21 (centres unmarked) [Example 93, 5-(1′-(2-Adamantylcarbamoyl)spiro[indoline-3,4′-piperidine]-1-yl)-5-oxopentanoic acid]",< 50 nM
2,"CC(C)(CC(=O)O)CC(=O)N1CC2(CCN(C(=O)NC3C4CC5CC(C4)CC3C5)CC2)c2ccccc21 (centres unmarked) [Example 96, 5-(1′-(2-Adamantylcarbamoyl)spiro[indoline-3,4′-piperidine]-1-yl)-3,3-dim ethyl-5-oxopentanoic acid]",< 50 nM
3,"CC(C)(CC(=O)N1Cc2ccccc2C2(CCN(C(=O)NC3C4CC5CC(C4)CC3C5)CC2)C1)C(=O)O (centres unmarked) [Example 97, 4-(1′-(2-Adamantylcarbamoyl)-1H-spiro[isoquinoline-4,4′-piperidine]-2(3H)-yl)-2,2-dimethyl-4-oxobutanoic acid]",< 50 nM
4,"CC(C)(CC(=O)O)CC(=O)N1Cc2ccccc2C2(CCN(C(=O)NC3C4CC5CC(C4)CC3C5)CC2)C1 (centres unmarked) [Example 98, 5-(1′-(2-Adamantylcarbamoyl)-1H-spiro[isoquinoline-4,4′-piperidine]-2(3H)-yl)-3,3-dimethyl-5-oxopentanoic acid]",50 to 1000 nM
5,"O=C(O)C1CC1C(=O)N1Cc2ccccc2C2(CCN(C(=O)NC3C4CC5CC(C4)CC3C5)CC2)C1 [Example 99, (1S,2R)-2-(1′42-Adamantylcarbamoyl)-2,3-dihydro-1H-spiro[isoquinoline-4,4′-piperidine]-2-ylcarbonyl)cyclopropanecaxboxylic acid]",50 to 1000 nM
6,"C=CCC1OC2(CCN(C(=O)NC3C4CC5CC(C4)CC3C5)CC2)c2c(Cl)cccc21 (centres unmarked) [Example 102, 3-Allyl-7-chloro-N-(2-adamantyl)-3H-spiro[isobenzofuran-1,4′-piperidine]-1′-carboxamide]",< 50 nM
7,"CN1C(C)(C)c2ccccc2C12CCN(C(=O)NC1C3CC4CC(C3)CC1C4)CC2 (centres unmarked) [Example 103, N-(2-Adamantyl)-2,3,3-trimethylspiro[isoindoline-1,4′-piperidine]-1′-carboxamide]",< 50 nM
8,"CC1(C)NC2(CCN(C(=O)NC3C4CC5CC(C4)CC3C5)CC2)c2c(Cl)cccc21 (centres unmarked) [Example 104, 7-Chloro-N-(2-adamantyl)-3,3-dimethylspiro[isoindoline-1,4′-piperidine]-1′-carboxamide]",< 50 nM
9,"CN1C(C)(C)c2cccc(Cl)c2C12CCN(C(=O)NC1C3CC4CC(C3)CC1C4)CC2 (centres unmarked) [Example 105, 7-Chloro-N-(2-adamantyl)-2,3,3-trimethylspiro[isoindoline-1,4′-piperidine]-1′-carboxamide]",< 50 nM
10,"COC(=O)CCS(=O)(=O)N1Cc2ccccc2C2(CCN(C(=O)NC3C4CC5CC(C4)CC3C5)CC2)C1 (centres unmarked) [Example 106, Methyl 3-(1′-(2-adamantylcarbamoyl)-1-H-spiro[isoquinoline-4,4′-piperidine]-2(3H)-ylsulfonyl)propanoate]",< 50 nM
11,"COC(=O)CCS(=O)(=O)N1Cc2ccccc2C2(CCN(C(=O)OC3C4CC5CC(C4)CC3C5)CC2)C1 (centres unmarked) [Example 107, 2-Adamantyl 2-(3-methoxy-3-oxopropylsulfonyl)-2,3-dihydro-1H-spiro[isoquinoline-4,4′-piperidine]-1′-carboxylate]",< 50 nM
12,"O=C(O)CCS(=O)(=O)N1Cc2ccccc2C2(CCN(C(=O)NC3C4CC5CC(C4)CC3C5)CC2)C1 (centres unmarked) [Example 108, 3-(1′-(2-Adamantylcarbamoyl)-1H-spiro[isoquinoline-4,4′-piperidine]-2(3H)-ylsulfonyl)propanoic acid]",< 50 nM
13,"O=C(CC1CC2(CCN(C(=O)NC3C4CC5CC(C4)CC3C5)CC2)c2c(Br)cccc21)N1CCNCC1 (centres unmarked) [Example 110, 7-Bromo-N-(2-adamantyl)-3-(2-oxo-2-(piperazin-1-yl)ethyl)-2,3-dihydrospiro[indene-1,4′-piperidine]-1′-carboxamide]",< 50 nM
14,"O=C(CC1CC2(CCN(C(=O)NC3C4CC5CC(C4)CC3C5)CC2)c2c(Br)cccc21)N1CCOCC1 (centres unmarked) [Example 111, 7-Bromo-N-(2-adamantyl)-3-(2-morpholino-2-oxoethyl)-2,3-dihydrospiro[indene-1,4′-piperidine]-1′-carboxamide]",< 50 nM
15,"CN1CCN(C(=O)CC2CC3(CCN(C(=O)NC4C5CC6CC(C5)CC4C6)CC3)c3c(Br)cccc32)CC1 (centres unmarked) [Example 112, 7-Bromo-N-(2-adamantyl)-3-(2-(4-methylpiperazin-1-yl)-2-oxoethyl)-2,3-dihydrospiro[indene-1,4′-piperidine]-1′-carboxamide]",< 50 nM
16,"CN(C)CCCC(=O)N1Cc2ccccc2C2(CCN(C(=O)NC3C4CC5CC(C4)CC3C5)CC2)C1 (centres unmarked) [Example 113, N-(2-Adamantyl)-2-(4-(dimethylamino)butanoyl)-2,3-dihydro-1H-spiro[isoquinoline-4,4′-piperidine]-1′-carboxamide]",< 50 nM
17,"CN(C)CCNC(=O)CC1CC2(CCN(C(=O)NC3C4CC5CC(C4)CC3C5)CC2)c2c(Br)cccc21 (centres unmarked) [Example 114, 7-Bromo-N-(2-adamantyl)-3-(2-(2-(dimethylamino)ethylamino)-2-oxoethyl)-2,3-dihydrospiro[indene-1,4′-piperidine]-1′-carboxamide]",< 50 nM
18,"CNCCN(C)C(=O)CC1CC2(CCN(C(=O)NC3C4CC5CC(C4)CC3C5)CC2)c2c(Br)cccc21 (centres unmarked) [Example 115, 7-Bromo-N-(2-adamantyl)-3-(2-(methyl(2-(methylamino)ethyl)amino)-2-oxoethyl)-2,3-dihydrospiro[indene-1,4′-piperidine]-1′-carboxamide]",< 50 nM
19,CN(C)CCN(C)C(=O)CC1CC2(CCN(C(=O)NC3C4CC5CC(C4)CC3C5)CC2)c2c(Br)cccc21 (centres unmarked) [Example 116],< 50 nM
20,"CN(C)CCCNC(=O)CC1CC2(CCN(C(=O)NC3C4CC5CC(C4)CC3C5)CC2)c2c(Br)cccc21 (centres unmarked) [Example 117, 7-Bromo-N-(2-adamantyl)-3-(2-(3-(dimethylamino)propylamino)-2-oxoethyl)-2,3-dihydrospiro[indene-1,4′-piperidine]-1′-carboxamide]",< 50 nM
21,"CN(C)CCCCNC(=O)CC1CC2(CCN(C(=O)NC3C4CC5CC(C4)CC3C5)CC2)c2c(Br)cccc21 (centres unmarked) [Example 118, 7-Bromo-N-(2-adamantyl)-3-(2-(4-(dimethylamino)butylamino)-2-oxoethyl)-2,3-dihydrospiro[indene-1,4-r-piperidine]-1′-carboxamide]",< 50 nM
22,"O=C(CC1CC2(CCN(C(=O)NC3C4CC5CC(C4)CC3C5)CC2)c2c(Br)cccc21)NCCN1CCNCC1 (centres unmarked) [Example 119, 7-Bromo-N-(2-adamantyl)-3-(2-oxo-2-(2-(piperazin-1-yl)ethylamino)ethyl)-2,3-dihydrospiro[indene-1,4′-piperidine]-1′-carboxamide]",< 50 nM
23,"O=C(CC1CC2(CCN(C(=O)NC3C4CC5CC(C4)CC3C5)CC2)c2c(Br)cccc21)NCCN1CCOCC1 (centres unmarked) [Example 120, 7-Bromo-N-(2-adamantyl)-3-(2-(2-morpholinoethylamino)-2-oxoethyl)-2,3-dihydrospiro[indene-1,4′-piperidine]-1′-carboxamide]",< 50 nM
24,"CN1CCN(CCNC(=O)CC2CC3(CCN(C(=O)NC4C5CC6CC(C5)CC4C6)CC3)c3c(Br)cccc32)CC1 (centres unmarked) [Example 121, 7-Bromo-N-(2-adamantyl)-3-(2-(2-(4-methylpiperazin-1-yl)ethylamino)-2-oxoethyl)-2,3-dihydrospiro[indene-1,4′-piperidine]-1′-carboxamide]",< 50 nM
